Results reported in US20250177359A1, “COMPOUNDS FOR USE IN THE TREATMENT OF CANCER AND INFLAMMATORY CONDITIONS” (priority 2022, published 2025).

Biological target: T1, PARP15 (Homo sapiens, UniProt Q460N3)
T1 sequence (Q460N3 1-678): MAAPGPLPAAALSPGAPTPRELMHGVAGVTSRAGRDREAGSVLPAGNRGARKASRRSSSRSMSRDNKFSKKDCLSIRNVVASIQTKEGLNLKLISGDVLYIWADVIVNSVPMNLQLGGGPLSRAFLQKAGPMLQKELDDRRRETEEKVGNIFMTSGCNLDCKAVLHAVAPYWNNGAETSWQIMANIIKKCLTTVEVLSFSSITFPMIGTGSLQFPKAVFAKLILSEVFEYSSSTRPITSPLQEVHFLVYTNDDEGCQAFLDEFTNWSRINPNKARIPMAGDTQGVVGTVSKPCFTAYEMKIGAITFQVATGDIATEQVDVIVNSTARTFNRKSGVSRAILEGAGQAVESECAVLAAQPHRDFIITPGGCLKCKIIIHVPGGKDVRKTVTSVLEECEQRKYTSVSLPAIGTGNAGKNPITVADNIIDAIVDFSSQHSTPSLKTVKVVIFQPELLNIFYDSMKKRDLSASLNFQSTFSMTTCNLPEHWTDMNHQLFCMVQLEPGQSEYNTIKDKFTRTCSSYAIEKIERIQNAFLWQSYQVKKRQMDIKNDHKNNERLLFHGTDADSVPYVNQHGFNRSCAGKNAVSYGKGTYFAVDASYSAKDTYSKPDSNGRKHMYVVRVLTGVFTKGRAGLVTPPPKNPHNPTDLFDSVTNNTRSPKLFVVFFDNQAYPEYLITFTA
Experiment: biochemical

Nc1nnc2sc3cc(O)ccc3n12 [Compound 109, 3-Amino[1,2,4]triazolo[3,4-b][1,3]benzothiazol-7-ol]
IC50: 0.68 µM
